{"source": "patent US20160375061A1", "about": "“COMPOSITION INVOLVED IN REGULATING ENERGY CYCLE, INFLAMMATION AND INSULIN RESISTANCE DYSFUNCTIONS, AND USE THEREOF PARTICULARLY IN CARDIOMETABOLIC DISEASES” (INTERNATIONAL NUTRITION RESEARCH COMPANY, priority 2013, published 2016)", "origin": "cited, not measured here", "conditions": "mutation of the gene transporter OCT1; normal daily doses 1 to 3 g/day"}
{"smiles": "CN(C)C(=N)N=C(N)N", "note": "[metformin]", "values": [{"measurement": "concentrations of metformin (saturation)", "result": "30 ± 19", "unit": "ng/mL"}]}
